Reference: ChEMBL document CHEMBL1153832, “Identification and characterization of UK-201844, a novel inhibitor that interferes with human immunodeficiency virus type 1 gp160 processing” (Antimicrob Agents Chemother, 2007)
The source made the active and inactive calls. The rule behind the calls is not given here.

Key:
[1] = test system: Human immunodeficiency virus 1; experiment: Antiviral activity against recombinant HIV1 NL4-3 bearing envelope with V372E substitution infected in human MT2 cells by virus production assay; format: functional, organism-based
[2] = Therapeutic index, ratio of CC50 for human MT2 cells to EC50 for HIV1 NL4-3; format: cell-based; conditions: read-out: TI
[3] = test system: Human immunodeficiency virus 1; experiment: Antiviral activity against HIV1 NL4-3 infected in human CEM-T4 cells; format: functional, organism-based
[4] = test system: Human immunodeficiency virus 1; experiment: Ratio of EC50 for recombinant HIV1 NL4-3 bearing envelope with S162N, N302Y, G354E, V372E, D474N substitutions to EC50 for parental HIV1 NL4-3; format: functional
[5] = test system: Human immunodeficiency virus 1; experiment: Antiviral activity against recombinant HIV1 NL4-3 bearing envelope with S162N, N302Y, G354E, V372E, D474N substitutions infected in human MT2 cells by virus production assay; format: functional, organism-based
[6] = test system: Human immunodeficiency virus 1; experiment: Antiviral activity against recombinant HIV1 NL4-3 bearing envelope with G354E, D474N substitutions infected in human MT2 cells by virus production assay; format: functional, organism-based
[7] = test system: Human immunodeficiency virus 1; experiment: Inhibition of HIV1 NL4-3 proteins incorporation into virions transfected in HEK293 cells assessed as unprocessed gp160 Env protein at 15 uM by Western blot; format: functional, organism-based
[8] = test system: Human immunodeficiency virus 1; experiment: Ratio of EC50 for recombinant HIV1 NL4-3 bearing envelope with G354E substitution to EC50 for parental HIV1 NL4-3; format: functional
[9] = Cytotoxicity against human MT2 cells after 6 days by XTT assay; format: cell-based
[10] = test system: Human immunodeficiency virus 1; experiment: Ratio of EC50 for recombinant HIV1 NL4-3 bearing envelope with D474N substitution to EC50 for parental HIV1 NL4-3; format: functional
[11] = test system: Human immunodeficiency virus 1; experiment: Antiviral activity against recombinant HIV1 NL4/3BCt chimeric virus infected in human MT2 cells assessed as inhibition of virus-induced CPE; format: functional, organism-based; conditions: Human immunodeficiency virus 1, NL4/3BCt
[12] = test system: Human immunodeficiency virus 1; experiment: Antiviral activity against HIV1 NL4-3 infected in human MT2 cells assessed as inhibition of virus-induced cytopathic effect after 6 days by XTT assay; format: functional, organism-based; conditions: Human immunodeficiency virus 1, NL4-3, MT2, 144 h
[13] = test system: Human immunodeficiency virus 1; experiment: Antiviral activity against HIV1 NL4/3BFL chimeric virus transfected in HEK293 cells assessed as inhibition of viral envelope gp160/gp120 processing at 15 uM by Western blot; format: functional; conditions: Human immunodeficiency virus 1, NL4/3BFL
[14] = target: Furin (Homo sapiens) (UniProt P09958); experiment: Inhibition of human recombinant furin up to 100 uM
Chain of Furin (Homo sapiens) (P09958 whole entry): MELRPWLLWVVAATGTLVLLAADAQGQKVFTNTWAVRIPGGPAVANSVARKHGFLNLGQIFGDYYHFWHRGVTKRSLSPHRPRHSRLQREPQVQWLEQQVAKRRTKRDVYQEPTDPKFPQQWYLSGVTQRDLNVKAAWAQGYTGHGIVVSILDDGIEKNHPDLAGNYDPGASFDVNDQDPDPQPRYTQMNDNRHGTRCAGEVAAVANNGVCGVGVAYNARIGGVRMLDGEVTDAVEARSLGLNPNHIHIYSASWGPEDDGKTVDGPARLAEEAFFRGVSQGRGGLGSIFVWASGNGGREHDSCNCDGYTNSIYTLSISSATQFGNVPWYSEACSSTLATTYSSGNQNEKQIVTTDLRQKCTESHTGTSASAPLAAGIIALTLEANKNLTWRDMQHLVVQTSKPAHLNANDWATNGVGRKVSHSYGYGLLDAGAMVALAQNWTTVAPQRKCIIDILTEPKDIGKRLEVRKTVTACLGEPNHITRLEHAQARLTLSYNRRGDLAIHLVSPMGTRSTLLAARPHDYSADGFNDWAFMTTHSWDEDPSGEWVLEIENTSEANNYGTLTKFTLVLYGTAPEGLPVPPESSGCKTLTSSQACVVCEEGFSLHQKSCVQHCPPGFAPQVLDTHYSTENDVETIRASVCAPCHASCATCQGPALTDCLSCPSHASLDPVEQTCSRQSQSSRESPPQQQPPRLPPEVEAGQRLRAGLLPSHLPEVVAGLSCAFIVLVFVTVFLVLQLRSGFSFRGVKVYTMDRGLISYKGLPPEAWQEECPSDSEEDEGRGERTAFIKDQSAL

[15] = test system: Human immunodeficiency virus 1; experiment: Antiviral activity against recombinant HIV1 NL4-3 bearing envelope with G354E substitution infected in human MT2 cells by virus production assay; format: functional, organism-based
[16] = test system: Human immunodeficiency virus 1; experiment: Antiviral activity against HIV1 NL4-3 infected in human MT2 cells assessed as inhibition of viral p24 antigen level at 0.5 uM by Western blot; format: functional; conditions: Human immunodeficiency virus 1, NL4-3, MT2
[17] = test system: Human immunodeficiency virus 1; experiment: Antiviral activity against HIV1 NL4-3 transfected in HEK293 cells assessed as inhibition of viral envelope gp160 processing at 7.5 uM by Western blot; format: functional; conditions: Human immunodeficiency virus 1, NL4-3, HEK293
[18] = test system: Human immunodeficiency virus 1; experiment: Antiviral activity against recombinant HIV1 NL4/3BNt chimeric virus infected in human MT2 cells assessed as inhibition of virus-induced CPE; format: functional, organism-based; conditions: Human immunodeficiency virus 1, NL4/3BNt
[19] = test system: Human immunodeficiency virus 1; experiment: Antiviral activity against HIV1 bearing VSV envelope infected in human MT2 cells assessed as inhibition of VSV-envelope packed virions at 15 uM after 72 hrs by virus production assay relative to control; format: functional; conditions: Human immunodeficiency virus 1, MT2, 72 h
[20] = test system: Human immunodeficiency virus 1; experiment: Antiviral activity against HIV1 NL4-3 infected in human C8166 cells; format: functional, organism-based
[21] = test system: Human immunodeficiency virus 1; experiment: Antiviral activity against HIV1 Ba-L infected in human PM1 cells assessed as inhibition of viral p24 antigen production after 5 days; format: functional, organism-based; conditions: Human immunodeficiency virus 1, Ba-L, PM1, 120 h
[22] = test system: Human immunodeficiency virus 1; experiment: Antiviral activity against HIV1 bearing HIV1 NL4-3 envelope infected in human MT2 cells assessed as inhibition of HIV-envelope packed virions at 15 uM after 72 hrs by virus production assay relative to control; format: functional; conditions: Human immunodeficiency virus 1, MT2, 72 h
[23] = test system: Human immunodeficiency virus 1; experiment: Antiviral activity against HIV1 NL4-3 transfected in HEK293 cells assessed as inhibition of viral envelope gp160 processing at 0.5 uM by Western blot; format: functional; conditions: Human immunodeficiency virus 1, NL4-3, HEK293
[24] = test system: Human immunodeficiency virus 1; experiment: Ratio of EC50 for recombinant HIV1 NL4-3 bearing envelope with V372E, D474N substitutions to EC50 for parental HIV1 NL4-3; format: functional
[25] = test system: Human immunodeficiency virus 1; experiment: Antiviral activity against HIV1 NL4-3 infected in human MT2 cells assessed as inhibition of viral p24 antigen level at 1.0 uM by Western blot; format: functional; conditions: Human immunodeficiency virus 1, NL4-3, MT2
[26] = test system: Human immunodeficiency virus 1; experiment: Inhibition of HIV1 NL4-3 proteins incorporation into virions transfected in HEK293 cells assessed as aberrant Env protein at 15 uM by Western blot; format: functional, organism-based
[27] = test system: Human immunodeficiency virus 1; experiment: Antiviral activity against HIV1 NL4-3 transfected in HEK293 cells assessed as inhibition of viral envelope gp160 processing at 15 uM by Western blot; format: functional; conditions: Human immunodeficiency virus 1, NL4-3, HEK293
[28] = target: T1, Proprotein convertase subtilisin/kexin type 6 (Rattus norvegicus) (UniProt Q63415); experiment: Inhibition of rat PACE4 up to 100 uM
T1 sequence (whole entry): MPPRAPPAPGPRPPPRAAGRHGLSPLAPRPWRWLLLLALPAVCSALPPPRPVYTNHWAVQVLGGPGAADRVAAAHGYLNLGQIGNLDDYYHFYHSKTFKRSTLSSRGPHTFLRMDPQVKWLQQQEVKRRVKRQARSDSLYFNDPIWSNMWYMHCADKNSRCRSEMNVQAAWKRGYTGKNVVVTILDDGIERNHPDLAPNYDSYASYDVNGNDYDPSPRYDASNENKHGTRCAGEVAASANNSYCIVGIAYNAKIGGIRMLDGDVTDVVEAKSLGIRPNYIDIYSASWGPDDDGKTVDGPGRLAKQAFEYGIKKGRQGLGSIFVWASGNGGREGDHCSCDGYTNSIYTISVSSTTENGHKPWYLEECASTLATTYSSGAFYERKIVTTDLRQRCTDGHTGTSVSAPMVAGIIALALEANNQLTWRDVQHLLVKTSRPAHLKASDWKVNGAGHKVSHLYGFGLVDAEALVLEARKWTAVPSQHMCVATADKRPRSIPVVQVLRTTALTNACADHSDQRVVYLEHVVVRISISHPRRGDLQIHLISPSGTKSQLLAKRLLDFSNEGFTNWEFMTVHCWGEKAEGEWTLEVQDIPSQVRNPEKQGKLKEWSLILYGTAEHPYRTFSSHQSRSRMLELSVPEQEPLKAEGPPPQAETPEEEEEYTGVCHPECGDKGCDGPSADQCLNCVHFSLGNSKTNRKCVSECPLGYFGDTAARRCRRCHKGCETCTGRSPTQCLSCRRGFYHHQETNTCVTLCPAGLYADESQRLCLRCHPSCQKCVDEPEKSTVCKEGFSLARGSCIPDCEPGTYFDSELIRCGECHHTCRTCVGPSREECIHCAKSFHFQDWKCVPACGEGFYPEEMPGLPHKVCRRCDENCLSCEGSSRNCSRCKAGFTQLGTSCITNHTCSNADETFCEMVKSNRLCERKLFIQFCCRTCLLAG

[29] = test system: Human immunodeficiency virus 1; experiment: Ratio of EC50 for recombinant HIV1 NL4-3 bearing envelope with G354E, D474N substitutions to EC50 for parental HIV1 NL4-3; format: functional
[30] = test system: Human immunodeficiency virus 1; experiment: Ratio of EC50 for recombinant HIV1 NL4-3 bearing envelope with G354E, V372E, D474N substitutions to EC50 for parental HIV1 NL4-3; format: functional
[31] = test system: Human immunodeficiency virus 1; experiment: Antiviral activity against recombinant HIV1 NL4-3 bearing envelope with D474N substitution infected in human MT2 cells by virus production assay; format: functional, organism-based

NC(=O)C(c1ccccc1)(c1ccccc1)[C@H]1CCCN(CCc2ccc3c(c2)CCO3)C1
EC50 [1]: 0.9 µM | selectivity ratio [2]: 41 | EC50 [3]: Active | fold change (FC) [4]: >31 | EC50 [5]: > 32 µM | EC50 [6]: > 32 µM | Activity [7]: Active | fold change (FC) [8]: 0.9 | CC50 at 144 h [9]: 53 µM | fold change (FC) [10]: 6 | EC50 [11]: 5.3 µM | EC50 [12]: 1.3 µM | inhibition at 15 µM [13]: 2% | Activity [14]: inactive | EC50 [15]: 0.9 µM | inhibition at 0.5 µM [16]: 12% | inhibition at 7.5 µM [17]: 99% | EC50 [18]: 1.2 µM | inhibition in vivo at 15 µM [19]: -6% | EC50 [20]: Active | EC50 [21]: 24 µM | inhibition in vivo at 15 µM [22]: 99.5% | inhibition at 0.5 µM [23]: 12% | fold change (FC) [24]: >31 | inhibition at 1 µM [25]: 44% | Activity [26]: Active | inhibition at 15 µM [27]: 100% | Activity [28]: inactive | fold change (FC) [29]: >31 | fold change (FC) [30]: >31 | EC50 [31]: 6.1 µM
